The results in this text go back to patent US9944613B2, “Fumagillol spirocyclic compounds and fused bicyclic compounds and methods of making and using same” (Zafgen, Inc., priority 2015, dated 2018).

Where a name gives a salt, the structure may show the parent alone.

In general, IC50 refers to the concentration that inhibits the measured activity by half. What is called inhibition in vivo is the change of the read-out against control, counted positive when it falls.

The target of data set [1] is T1, recombinant human MetAP2 (Homo sapiens, UniProt P50579).
T1 construct: Flag; made in house
T1 sequence (P50579 whole entry): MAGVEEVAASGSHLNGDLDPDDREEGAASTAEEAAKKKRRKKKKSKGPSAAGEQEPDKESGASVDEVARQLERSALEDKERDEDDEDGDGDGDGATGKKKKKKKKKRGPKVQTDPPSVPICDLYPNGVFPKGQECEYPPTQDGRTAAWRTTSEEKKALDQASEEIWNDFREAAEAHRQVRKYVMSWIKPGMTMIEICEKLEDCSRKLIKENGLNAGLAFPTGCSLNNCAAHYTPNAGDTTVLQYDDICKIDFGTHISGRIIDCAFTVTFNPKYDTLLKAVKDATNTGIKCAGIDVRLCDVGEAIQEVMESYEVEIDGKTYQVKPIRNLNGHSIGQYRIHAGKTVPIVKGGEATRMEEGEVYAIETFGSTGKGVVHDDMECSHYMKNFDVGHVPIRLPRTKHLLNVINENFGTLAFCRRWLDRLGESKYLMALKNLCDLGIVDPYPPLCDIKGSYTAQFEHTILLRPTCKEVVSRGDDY
Put plainly: Inhibition of recombinant human MetAP2 activity (MAS peptide / amino acid oxidase / Amplex assay). It counts as biochemical. The following applies: Flag tagged human recombinant MetAP2, 25 minutes at 25° C.; read-out: MetAP2 IC50. Here is the method:
Compounds are tested for their capacity to inhibit recombinant human MetAP2 activity using the following assay.
Flag tagged Human recombinant MetAP2 expressed and isolated for use as the enzyme source. 10 mM stock solutions of compounds were prepared in 100% DMSO and further diluted in 100% DMSO required concentration to 1 mM stocks. The stock compound solutions and DMSO vehicle controls were diluted to target final compound concentrations using assay buffer to a final concentration of 50 mM HEPES containing 100 mM NaCl, pH adjusted to 7.5. The MAS peptide was formulated to a 7.5 mM stock in distilled water and prior to use further diluted 1:4. […] 40 μl of enzyme was mixed with 100 μl of MnCl2 then further diluted in assay buffer to a final concentration of 16 μg/ml. To test for compound effect on MetAP2 enzyme activity, 5 μl of test compound, 10 μl of MAS substrate/amino acid oxidase mixture, 10 μl of MetAP2 was added to test wells in a 384 well black plate with blank wells containing no enzyme, replaced with 10 μl of assay buffer. All compounds were tested in duplicate on two occasions on the same day.
The plate was sealed with a TopSeal A cover and mixed briefly on an orbital mixer at 900 rpm. The plate was incubated for a further 25 minutes at 25° C. A 5× stock of Amplex buffer was prepared (0.25M sodium phosphate, pH 7.4) and stored at 4° C. When preparing for use the stock was diluted with distilled water. […] Horse radish peroxidase was diluted in […] of Amplex buffer, 100 μl of this was combined with 50 μl of Amplex Ultrared in […] of 1× Amplex buffer to generate sufficient detection reagent for a 384 well plate. 25 μl detection reagent was added to each well of the test plate, which was re-sealed and mixed briefly on an orbital shaker. The plate was transferred to an Envision Multi-label reader and RFU measured corresponding to excitation 531 nm and emission 595 nm. At the end of the MetAP2 incubation 25 μl Amplex/HRP mixture per well was added and the plate read plate on a plate reader.

In data set [2] the test system is pregnant Sprague Dawley rats (embryo/fetal development). Put plainly: Rat embryofetal development study. In kind it is in vivo. The following applies: 6 mpk subcutaneously once every three days, Gestation Days 6-18, pregnant rats. From the text:
Study Summary Rat Embryofetal:
The objective of this study design was to evaluate the potential effects of disclosed compounds on embryo/fetal development when given subcutaneously to pregnant rats once every three days during the critical period of organogenesis (Gestation Days 6-18). Female, Sprague Dawley rats, approximately 10 weeks of age, time bred, were ordered from a certified vendor and housed individually housed in stainless steel cages suspended over flush pans, on a 12-hour light-dark cycle (0700-1900) at 20-26° C. and 30-70% humidity. Rats were fed a standard rodent chow and provided water ad libitum. Rats were received and housed in the facility for a period of approximately 1 to 2 days.
Compounds were formulated using 100% DMSO mixed in Sterile Water for Injection, resulting in 2% DMSO solution in water. If necessary, due to limited solubility of a test article, a higher percentage of DMSO solution in water was used. Groups of 8 mated and presumed pregnant female rats were given subcutaneous doses of vehicle or test article, once every three days, beginning on Gestation Day 6 and ending on Gestation Day 18 (Days 6, 9, 12, 15, and 18), maintained two more days, and then euthanized and necropsied on Gestation Day 20. Body weights was recorded for all animals on Gestation Days 5 (purpose of randomization), 6, 9, 12, 15, 18, and 20 (scheduled euthanasia). Food consumption by weight was recorded on Gestation Days 6, 9, 12, 15, 18, and 20 (scheduled termination).
At necropsy, the dams were examined visually for external abnormalities including palpable masses. The abdominal, thoracic, and cranial cavities and their contents were examined for abnormalities and findings will be recorded. The reproductive tract were examined to record the number of ovarian corpora lutea, the number and location of uterine implantation sites noting the position of the cervix, and the number of early resorptions, late resorptions, live fetuses, and dead fetuses. For dead fetuses and late resorptions, crown-to-rump length and weight were recorded, if possible, and the fetus was discarded. For viable fetuses, weight, sex, and grossly visible external abnormalities were recorded.

Data set [3] concerns Diet Induced Obese (DIO) C57BL/6 mice. Put plainly: 10 day DIO mouse model, weight loss vs. vehicle. It counts as in vivo. The following applies: 240 h, 0.3 mpk sc once a day for 10 days. From the text: The objective of this study design was to investigate the efficacy of disclosed compounds in a 10 day DIO mouse model. Effects on body weight, food intake, hematology and blood chemistry were the primary readouts of this study design. Male, Diet Induced Obese (DIO) C57BL/6 mice, 19-21 weeks of age (13-15 weeks on high fat diet) were ordered from a certified vendor and upon receipt were housed on irradiated corncob bedding in micro-isolator cages on a 12-hour light-dark cycle (0700-1900) at 68-74° F. and 30-70% humidity. Mice were fed Research Diets D12492 (60% Kcal fat, 20% Kcal carbohydrate and 20% protein) and provided water ad libitum. DIO mice were received and housed in the facility for approximately two weeks prior to the start of test article administration. On Day −4 or −3, mice were randomized into study groups based on body weight and body weights were continued to be recorded daily for the duration of the study. Daily food intake was assessed starting on Study Day −2 by weighing of the food with hopper together to avoid loss of food in transfer.
(§1) Compounds were formulated into a 100% DMSO stock (at 9 mg/mL) prior to the start, and further diluted into the target working concentration using the vehicle of 10% DMSO in water. Prior to test article administration, starting on Day −3 a dosing acclimation occured with all animals receiving a subcutaneous injection of vehicle (10% DMSO) only for 3 days. Starting on Day 1, test compounds or vehicle were administered based on individual body weight, subcutaneously, once a day for 10 days. All mice were sacrificed on Day 11, 24 hours following the final dosing on Day 10. After sacrifice, whole blood was collected and analyzed for hematology and blood chemistry parameters.
(§2) Compounds were tested for weight loss vs. vehicle at 0.3 and 1.0 mpk sc (mg per kg animal weight delivered subcutaneously), and the results are shown in Table 2 below.

Data set [4] relates to rat DIO model (Sprague Dawley rats on high fat diet). Put plainly: 11 day rat DIO model, weight loss vs. vehicle. It counts as in vivo. The conditions noted are these: for Rat @ 1.0 mpk sc (%): 1.0 mpk sc once a day for 11 days; for inhibition in vivo at 0.3 mg/kg: Rattus norvegicus, 264 h, 0.3 mpk sc once a day for 11 days.
Excerpt: The objective of this study design is to investigate the efficacy of disclosed compounds in an 11 day rat DIO model used to screen compounds for pharmacologic efficacy on endpoints related to obesity and metabolism. Effects on body weight, food intake, hematology and blood chemistries were the primary readouts of this study design. Male Sprague Dawley rats, approximately 8 weeks of age, were ordered from a certified vendor and housed on irradiated corncob bedding in micro-isolator cages, on a 12-hour light-dark cycle (0700-1900) at 68-74° F. and 30-70% humidity. Rats were fed Research Diets D12451 (45% High Fat) and provided water ad libitum. Rats were received and housed in the facility for at least two or three weeks prior to start of test article administration. On Day −4 or −3, rats were randomized into study groups based on body weight and body weights were continued to be recorded daily for the duration of the study. Daily food intake was assessed starting on Study Day −2 by weighing the hopper including the food to avoid loss of food in transfer.
as §1, with “for 11” for “for 10”, “All animals” for “All mice”, “11, approximately 2” for “11, 24”, “Day 11.” for “Day 10.”
as §2

On to `CO[C@@H]1[C@H](OC(=O)N2CC3(COC3)C2)CC[C@]2(CO2)[C@H]1[C@@]1(C)O[C@@H]1CC=C(C)C` [Example 2, (3R,4S,5S,6R)-5-methoxy-4-((2R,3R)-2-methyl-3-(3-methylbut-2-enyl)oxiran-2-yl)-1-oxaspiro[2.5]octan-6-yl 2-oxa-6-azaspiro[3.3]heptane-6-carboxylate], for which the IC50 in data set [1] was below 0.05 µM. In addition, in data set [2], the “Rat Embryofetal @6 mpk” value is reported as “Positive”. In data set [3], this compound gave an inhibition in vivo at 0.3 mg/kg of 11.1%. In data set [4], the “Rat @ 1.0 mpk sc (%)” value turned out to be 10.2% and 0.3 mg/kg produced 8% inhibition in vivo.

On to `CO[C@@H]1[C@H](OC(=O)N2CC3(CCN(CC(F)F)CC3)C2)CC[C@]2(CO2)[C@H]1[C@@]1(C)O[C@@H]1CC=C(C)C` [Example 9, (3R,4S,5S,6R)-5-methoxy-4-((2R,3R)-2-methyl-3-(3-methylbut-2-enyl)oxiran-2-yl)-1-oxaspiro[2.5]octan-6-yl 7-(2,2-difluoroethyl)-2,7-diazaspiro[3.5]nonane-2-carboxylate formate], for which the IC50 in data set [1] fell in the range of 0.05 to 0.5 µM. In addition, the “Rat Embryofetal @6 mpk” value in data set [2] was “Positive”. Besides, in data set [3], the inhibition in vivo at 0.3 mg/kg was 21.5%.

`CO[C@@H]1[C@H](OC(=O)N2CC3C(C2)C3(F)F)CC[C@]2(CO2)[C@H]1[C@@]1(C)O[C@@H]1CC=C(C)C` (stereo partly drawn) [Example 22, (3R,4S,5S,6R)-5-methoxy-4-((2R,3R)-2-methyl-3-(3-methylbut-2-enyl)oxiran-2-yl)-1-oxaspiro[2.5]octan-6-yl 6,6-difluoro-3-azabicyclo[3.1.0]hexane-3-carboxylate]: in data set [1], the IC50 is below 0.05 µM. Besides, in data set [2], the “Rat Embryofetal @6 mpk” value was “Negative”. The compound further yielded an inhibition in vivo at 0.3 mg/kg in data set [3] of 15.5%.

As to `CO[C@@H]1[C@H](OC(=O)N2CCC3(CCOCC3)CC2)CC[C@]2(CO2)[C@H]1[C@@]1(C)O[C@@H]1CC=C(C)C` [Example 1, (3R,4S,5S,6R)-5-methoxy-4-((2R,3R)-2-methyl-3-(3-methylbut-2-enyl)oxiran-2-yl)-1-oxaspiro[2.5]octan-6-yl 3-oxa-9-azaspiro[5.5]undecane-9-carboxylate], the IC50 in data set [1] was 0.05 to 0.5 µM. Also, the inhibition in vivo at 0.3 mg/kg in data set [3] was 17%; in data set [4], 10.3%. Moreover, the “Rat @ 1.0 mpk sc (%)” value in data set [4] turned out to be 16.3%.

As for `CO[C@@H]1[C@H](OC(=O)N2C[C@H]3CN(CC(F)F)C[C@H]3C2)CC[C@]2(CO2)[C@H]1[C@@]1(C)O[C@@H]1CC=C(C)C` [Example 19, (3aR,6aS)-((3R,4S,5S,6R)-5-methoxy-4-((2R,3R)-2-methyl-3-(3-methylbut-2-enyl)oxiran-2-yl)-1-oxaspiro[2.5]octan-6-yl) 5-(2,2-difluoroethyl)hexahydropyrrolo[3,4-c]pyrrole-2(1H)-carboxylate], the IC50 in data set [1] was in the range of 0.05 to 0.5 µM. Also, the values for the inhibition in vivo at 0.3 mg/kg in data set [3] and in data set [4] were 22.6% and 7.6%, respectively.

For the compound `CO[C@@H]1[C@H](OC(=O)NC2CC3(C2)CN(C)C3)CC[C@]2(CO2)[C@H]1[C@@]1(C)O[C@@H]1CC=C(C)C` [Example 10, (3R,4S,5S,6R)-5-methoxy-4-((2R,3R)-2-methyl-3-(3-methylbut-2-enyl)oxiran-2-yl)-1-oxaspiro[2.5]octan-6-yl 2-methyl-2-azaspiro[3.3]heptan-6-ylcarbamate formate], in data set [1], the IC50 was below 0.05 µM. In addition, the inhibition in vivo at 0.3 mg/kg in data set [3] is 8.4%; in data set [4], 2%. Moreover, the “Rat @ 1.0 mpk sc (%)” value in data set [4] was found to be 7.2%.

For the compound `CO[C@@H]1[C@H](OC(=O)N2CCC3(CCOCC3)C2)CC[C@]2(CO2)[C@H]1[C@@]1(C)O[C@@H]1CC=C(C)C` [Example 27, (3R,4S,5S,6R)-5-methoxy-4-((2R,3R)-2-methyl-3-(3-methylbut-2-enyl)oxiran-2-yl)-1-oxaspiro[2.5]octan-6-yl 8-oxa-2-azaspiro[4.5]decane-2-carboxylate], the concentration for half-maximal inhibition (IC50) in data set [1] lay within 0.05 to 0.5 µM. Moreover, the “Rat Embryofetal @6 mpk” value in data set [2] is given as “Positive”. Besides, in data set [3], 0.3 mg/kg produced 16.3% inhibition in vivo.
